Laboratory results taken from patent publication US5371070A, “Bicyclic GnRH antagonists and a method for regulating the secretion of gonadotropins” (The Salk Institute for Biological Studies, priority 1992, dated 1994).
Positions of bridges follow the written chain, without caps; N, C: chain ends. Non-standard residues stand in square brackets, D forms with d. Residues, ends and D or L forms follow the SMILES beside them. Phe(4-Cl) = N[C@@H](Cc1ccc(Cl)cc1)C(=O)O; dPhe(4-Cl) = N[C@H](Cc1ccc(Cl)cc1)C(=O)O; 2Nal = N[C@@H](Cc1ccc2ccccc2c1)C(=O)O; d2Nal = N[C@H](Cc1ccc2ccccc2c1)C(=O)O; d3Pal = N[C@H](Cc1cccnc1)C(=O)O; Orn = NCCC[C@H](N)C(=O)O; Dab = NCC[C@H](N)C(=O)O; Dap = NC[C@H](N)C(=O)O; βAla = NCCC(=O)O; Sar = CNCC(=O)O

Tested on: ovulation in mature female Sprague-Dawley rats
Assay: rat anti-ovulation assay (in vivo)
Details: for Rats Ovulating: injected about noon on day of proestrus, rats ovulating/rats treated
Source text: These improved bicyclic GnRH antagonists are generally characterized by a substantial ability to suppress the secretion of LH in a standard rat pituitary cell assay when administered together with a concentration of 3 nanomolar GnRH, the details of which assay are set forth in Rivier and Vale, Life Sciences, 23, 869-876 (1978). By substantial ability is meant that, at a concentration of GnRH antagonist to GnRH of about 2/1 or less, the amount of LH secreted is reduced by 50% (IDR50). Moreover, when tested in vivo in the standard rat anti-ovulation assay (Corbin et al. Endocrine Res. Commun., 2, 1 (1975)), these GnRH antagonists show complete blockage of ovulation when administered at about 200 μg or less per kilogram of body weight.
In vivo testing determines effectiveness to prevent ovulation in female rats. In this test, a specified number of mature female Sprague-Dawley rats, e.g. usually five to ten, each having a body weight from about 225 to 250 grams, is injected with a specified microgram dosage of peptide in either saline or bacteriostatic water at about noon on the day of proestrus. Proestrus is the afternoon […]. A separate female rat group is used as a control to which the peptide is not administered. Each of the control female rats ovulates on the evening of proestrus, and the number of the treated rats which ovulate is recorded. The results are set forth in the following Table A, wherein the dosages stated are in micrograms per rat.

Structure (SMILES)	Rats Ovulating (dosage 10 micrograms per rat)	Rats Ovulating (dosage 2.5 micrograms per rat)	Rats Ovulating (dosage 5 micrograms per rat)	other results
CC(=O)N[C@H](Cc1ccc2ccccc2c1)C(=O)N[C@H](Cc1ccc(Cl)cc1)C(=O)N[C@H](Cc1cccnc1)C(=O)N[C@H]1CC(=O)NC[C@@H](C(N)=O)NC(=O)[C@@H]2CCCN2C(=O)[C@@H]2CCNC(=O)CN(C)C(=O)CC[C@H](NC1=O)C(=O)N[C@H](CCCNC(=N)N)C(=O)N[C@@H](CC(C)C)C(=O)N2 [Peptide 5] (Ac-[d2Nal][dPhe(4-Cl)][d3Pal]DE[dR]L[Dab]P[Dap]-NH2; lactam 4-10; linker 5-8 via Sar)	4/9	–	–	–
CC(=O)N[C@H](Cc1ccc2ccccc2c1)C(=O)N[C@H](Cc1ccc(Cl)cc1)C(=O)N[C@H](Cc1cccnc1)C(=O)N[C@H]1CC(=O)NC[C@@H](C(N)=O)NC(=O)[C@@H]2CCCN2C(=O)[C@@H]2CCCNC(=O)[C@H](Cc3ccccc3)NC(=O)C[C@H](NC1=O)C(=O)N[C@H](CCCNC(=N)N)C(=O)N[C@@H](CC(C)C)C(=O)N2 [Peptide 10] (Ac-[d2Nal][dPhe(4-Cl)][d3Pal]DD[dR]L[Orn]P[Dap]-NH2; lactam 4-10; linker 5-8 via F)	–	6/6	0/4	–
CC(=O)N[C@H](Cc1ccc2ccccc2c1)C(=O)N[C@H](Cc1ccc(Cl)cc1)C(=O)N[C@H](Cc1cccnc1)C(=O)N[C@H]1CC(=O)NC[C@@H](C(N)=O)NC(=O)[C@@H]2CCCN2C(=O)[C@@H]2CCNC(=O)CNC(=O)CC[C@H](NC1=O)C(=O)N[C@H](CCCNC(=N)N)C(=O)N[C@@H](CC(C)C)C(=O)N2 [Peptide 2] (Ac-[d2Nal][dPhe(4-Cl)][d3Pal]DE[dR]L[Dab]P[Dap]-NH2; lactam 4-10; linker 5-8 via G)	1/6	6/8	2/8	Rats Ovulating (dosage 25 micrograms per rat): 0/3
CC(=O)N[C@H](Cc1ccc2ccccc2c1)C(=O)N[C@H](Cc1ccc(Cl)cc1)C(=O)N[C@H](Cc1cccnc1)C(=O)N[C@H]1CC(=O)NC[C@@H](C(N)=O)NC(=O)[C@@H]2CCCN2C(=O)[C@@H]2CCNC(=O)[C@H](Cc3ccc(Cl)cc3)NC(=O)CC[C@H](NC1=O)C(=O)N[C@H](CCCNC(=N)N)C(=O)N[C@@H](CC(C)C)C(=O)N2 [Peptide 14] (Ac-[d2Nal][dPhe(4-Cl)][d3Pal]DE[dR]L[Dab]P[Dap]-NH2; lactam 4-10; linker 5-8 via Phe(4-Cl))	–	3/4	0/6	–
CC(=O)N[C@H](Cc1ccc2ccccc2c1)C(=O)N[C@H](Cc1ccc(Cl)cc1)C(=O)N[C@H](Cc1cccnc1)C(=O)N[C@H]1CC(=O)NC[C@@H](C(N)=O)NC(=O)[C@@H]2CCCN2C(=O)[C@@H]2CCNC(=O)[C@H](Cc3c[nH]cn3)NC(=O)CC[C@H](NC1=O)C(=O)N[C@H](CCCNC(=N)N)C(=O)N[C@@H](CC(C)C)C(=O)N2 [Peptide 12] (Ac-[d2Nal][dPhe(4-Cl)][d3Pal]DE[dR]L[Dab]P[Dap]-NH2; lactam 4-10; linker 5-8 via H)	–	3/8	–	Rats Ovulating (dosage 1.0 micrograms per rat): 4/4
CC(=O)N[C@H](Cc1ccc2ccccc2c1)C(=O)N[C@H](Cc1ccc(Cl)cc1)C(=O)N[C@H](Cc1cccnc1)C(=O)N[C@H]1CC(=O)NC[C@@H](C(N)=O)NC(=O)[C@@H]2CCCN2C(=O)[C@@H]2CNC(=O)[C@H](Cc3ccccc3)NC(=O)CC[C@H](NC1=O)C(=O)N[C@H](CCCNC(=N)N)C(=O)N[C@@H](CC(C)C)C(=O)N2 [Peptide 6] (Ac-[d2Nal][dPhe(4-Cl)][d3Pal]DE[dR]L[Dap]P[Dap]-NH2; lactam 4-10; linker 5-8 via F)	6/8	–	–	–
CC(=O)N[C@H](Cc1ccc2ccccc2c1)C(=O)N[C@H](Cc1ccc(Cl)cc1)C(=O)N[C@H](Cc1cccnc1)C(=O)N[C@H]1CC(=O)NC[C@@H](C(N)=O)NC(=O)[C@@H]2CCCN2C(=O)[C@@H]2CCNC(=O)CNC(=O)C[C@H](NC1=O)C(=O)N[C@H](CCCNC(=N)N)C(=O)N[C@@H](CC(C)C)C(=O)N2 [Peptide 3] (Ac-[d2Nal][dPhe(4-Cl)][d3Pal]DD[dR]L[Dab]P[Dap]-NH2; lactam 4-10; linker 5-8 via G)	4/6	–	–	Rats Ovulating (dosage 25 micrograms per rat): 0/5
CC(=O)N[C@H](Cc1ccc2ccccc2c1)C(=O)N[C@H](Cc1ccc(Cl)cc1)C(=O)N[C@H](Cc1cccnc1)C(=O)N[C@H]1CC(=O)NC[C@@H](C(N)=O)NC(=O)[C@@H]2CCCN2C(=O)[C@@H]2CCNC(=O)[C@H](Cc3ccccc3)NC(=O)CC[C@H](NC1=O)C(=O)N[C@H](CCCNC(=N)N)C(=O)N[C@@H](CC(C)C)C(=O)N2 [Peptide 7] (Ac-[d2Nal][dPhe(4-Cl)][d3Pal]DE[dR]L[Dab]P[Dap]-NH2; lactam 4-10; linker 5-8 via F)	0/9	3/10	1/8	Rats Ovulating (dosage 1.0 micrograms per rat): 4/7
CC(=O)N[C@H](Cc1ccc2ccccc2c1)C(=O)N[C@H](Cc1ccc(Cl)cc1)C(=O)N[C@H](Cc1cccnc1)C(=O)N[C@H]1CC(=O)NC[C@@H](C(N)=O)NC(=O)[C@@H]2CCCN2C(=O)[C@@H]2CCNC(=O)[C@H](Cc3ccc4ccccc4c3)NC(=O)CC[C@H](NC1=O)C(=O)N[C@H](CCCNC(=N)N)C(=O)N[C@@H](CC(C)C)C(=O)N2 [Peptide 11] (Ac-[d2Nal][dPhe(4-Cl)][d3Pal]DE[dR]L[Dab]P[Dap]-NH2; lactam 4-10; linker 5-8 via 2Nal)	0/4	–	1/7	–
CC(=O)N[C@H](Cc1ccc2ccccc2c1)C(=O)N[C@H](Cc1ccc(Cl)cc1)C(=O)N[C@H](Cc1cccnc1)C(=O)N[C@H]1CC(=O)NC[C@@H](C(N)=O)NC(=O)[C@@H]2CCCN2C(=O)[C@@H]2CCNC(=O)CCNC(=O)C[C@H](NC1=O)C(=O)N[C@H](CCCNC(=N)N)C(=O)N[C@@H](CC(C)C)C(=O)N2 [Peptide 4] (Ac-[d2Nal][dPhe(4-Cl)][d3Pal]DD[dR]L[Dab]P[Dap]-NH2; lactam 4-10; linker 5-8 via βAla)	4/5	9/14	7/10	–
CC(=O)N[C@H](Cc1ccc2ccccc2c1)C(=O)N[C@H](Cc1ccc(Cl)cc1)C(=O)N[C@H](Cc1cccnc1)C(=O)N[C@H]1CC(=O)NC[C@@H](C(N)=O)NC(=O)[C@@H]2CCCN2C(=O)[C@@H]2CCCNC(=O)[C@H](Cc3ccccc3)NC(=O)CC[C@H](NC1=O)C(=O)N[C@H](CCCNC(=N)N)C(=O)N[C@@H](CC(C)C)C(=O)N2 [Peptide 8] (Ac-[d2Nal][dPhe(4-Cl)][d3Pal]DE[dR]L[Orn]P[Dap]-NH2; lactam 4-10; linker 5-8 via F)	5/5	–	–	Rats Ovulating (dosage 25 micrograms per rat): 0/8
CC(=O)N[C@H](Cc1ccc2ccccc2c1)C(=O)N[C@H](Cc1ccc(Cl)cc1)C(=O)N[C@H](Cc1cccnc1)C(=O)N[C@H]1CC(=O)NC[C@@H](C(N)=O)NC(=O)[C@@H]2CCCN2C(=O)[C@@H]2CCNC(=O)[C@H](CCCNC(=N)N)NC(=O)CC[C@H](NC1=O)C(=O)N[C@H](CCCNC(=N)N)C(=O)N[C@@H](CC(C)C)C(=O)N2 [Peptide 1, (Cyclo 4-10,5,5'-8)[Ac-β-D-2NAL^1, (4Cl)D--Phe^2, D-3PAL^3, Asp^4, Glu^5 (Arg), D--Arg^6, Dbu^8, Dpr^10]-GnRH] (Ac-[d2Nal][dPhe(4-Cl)][d3Pal]DE[dR]L[Dab]P[Dap]-NH2; lactam 4-10; linker 5-8 via R)	–	0/4	–	effectiveness to prevent ovulation of female rats (at a very low dosage): significantly effective; Rats Ovulating (dosage 1.0 micrograms per rat): 2/11; dose considered totally effective to prevent ovulation (female rats): about 50 micrograms per Kg of body weight; dose at which it should likely be effective to prevent ovulation (female rats, stated as likely): about 5 μg/Kg
CC(=O)N[C@H](Cc1ccc2ccccc2c1)C(=O)N[C@H](Cc1ccc(Cl)cc1)C(=O)N[C@H](Cc1cccnc1)C(=O)N[C@H]1CC(=O)NC[C@@H](C(N)=O)NC(=O)[C@@H]2CCCN2C(=O)[C@@H]2CCNC(=O)[C@H](Cc3ccccc3)NC(=O)C[C@H](NC1=O)C(=O)N[C@H](CCCNC(=N)N)C(=O)N[C@@H](CC(C)C)C(=O)N2 [Peptide 9] (Ac-[d2Nal][dPhe(4-Cl)][d3Pal]DD[dR]L[Dab]P[Dap]-NH2; lactam 4-10; linker 5-8 via F)	0/4	–	–	–
